Assay: in vivo
Assay type: in vivo
Protocol: Eighteen male and eighteen female beagle dogs were received from Ridglan Farms, Mt. Horeb, Wis. […] Each group consisted of four males and four females. All animals/sex/group were scheduled for the primary necropsy at the end of the 13-week treatment period.
The animals were observed twice daily for mortality and moribundity. Clinical examinations were performed daily at the time of dosing and approximately 1-2 and approximately 3 hours following dose administration. Detailed physical examinations were performed weekly. Clinical pathology evaluations (hematology, serum chemistry and urinalysis) were performed prior to the initiation of dose administration (study week-1) and prior to the scheduled necropsy (study week 13). Individual body weights were recorded weekly, beginning approximately two weeks prior to test article administration (study week-2). Mean body weights and mean body weight changes were calculated for each corresponding interval. Final body weights (fasted) were recorded prior to the scheduled necropsy. […] Gross lesions were also examined from the 2.0 and 6.0 mg/kg/day groups.

Cl.Clc1ccc([C@@]23CNC[C@@H]2C3)cc1Cl (single isomer, unassigned) [(+)-1-(3,4-dichlorophenyl)-3-azabicyclo[3.1.0]hexane hydrochloride]
weekly food consumption, MEAN (female dogs, 2.0 MG/KG/DAY, WEEK 9 TO 10): 375. C/ANIMAL/DAY | weekly food consumption, MEAN (female dogs, 2.0 MG/KG/DAY, WEEK 10 TO 11): 389. C/ANIMAL/DAY | weekly food consumption, MEAN (female dogs, 2.0 MG/KG/DAY, WEEK 12 TO 13): 355. C/ANIMAL/DAY | weekly food consumption, MEAN (female dogs, 6.0 MG/KG/DAY group, WEEK −1 TO 0 (before dosing)): 275. C/ANIMAL/DAY | weekly food consumption, MEAN (female dogs, 6.0 MG/KG/DAY, WEEK 0 TO 1): 247. C/ANIMAL/DAY | weekly food consumption, MEAN (female dogs, 6.0 MG/KG/DAY, WEEK 1 TO 2): 288. C/ANIMAL/DAY | weekly food consumption, MEAN (female dogs, 6.0 MG/KG/DAY, WEEK 2 TO 3): 307. C/ANIMAL/DAY | weekly food consumption, MEAN (female dogs, 6.0 MG/KG/DAY, WEEK 3 TO 4): 307. C/ANIMAL/DAY | weekly food consumption, MEAN (female dogs, 6.0 MG/KG/DAY, WEEK 4 TO 5): 350. C/ANIMAL/DAY | weekly food consumption, MEAN (female dogs, 6.0 MG/KG/DAY, WEEK 5 TO 6): 374. C/ANIMAL/DAY | weekly food consumption, MEAN (female dogs, 6.0 MG/KG/DAY, WEEK 6 TO 7): 381. C/ANIMAL/DAY | weekly food consumption, MEAN (female dogs, 6.0 MG/KG/DAY, WEEK 7 TO 8): 356. C/ANIMAL/DAY | weekly food consumption, MEAN (female dogs, 6.0 MG/KG/DAY, WEEK 8 TO 9): 368. C/ANIMAL/DAY | weekly food consumption, MEAN (female dogs, 6.0 MG/KG/DAY, WEEK 9 TO 10): 360. C/ANIMAL/DAY | weekly food consumption, MEAN (female dogs, 6.0 MG/KG/DAY, WEEK 10 TO 11): 367. C/ANIMAL/DAY | weekly food consumption, MEAN (female dogs, 6.0 MG/KG/DAY, WEEK 11 TO 12): 357. C/ANIMAL/DAY | weekly food consumption, MEAN (female dogs, 6.0 MG/KG/DAY, WEEK 12 TO 13): 331. C/ANIMAL/DAY | weekly food consumption, MEAN (female dogs, 20 MG/KG/DAY group, WEEK −1 TO 0 (before dosing)): 275. C/ANIMAL/DAY | weekly food consumption, MEAN (female dogs, 20 MG/KG/DAY, WEEK 0 TO 1): 212.* C/ANIMAL/DAY | weekly food consumption, MEAN (female dogs, 20 MG/KG/DAY, WEEK 1 TO 2): 295. C/ANIMAL/DAY | weekly food consumption, MEAN (female dogs, 20 MG/KG/DAY, WEEK 2 TO 3): 314. C/ANIMAL/DAY | weekly food consumption, MEAN (female dogs, 20 MG/KG/DAY, WEEK 3 TO 4): 337. C/ANIMAL/DAY | weekly food consumption, MEAN (female dogs, 20 MG/KG/DAY, WEEK 4 TO 5): 356. C/ANIMAL/DAY | weekly food consumption, MEAN (female dogs, 20 MG/KG/DAY, WEEK 5 TO 6): 331. C/ANIMAL/DAY | weekly food consumption, MEAN (female dogs, 20 MG/KG/DAY, WEEK 6 TO 7): 328. C/ANIMAL/DAY | weekly food consumption, MEAN (female dogs, 20 MG/KG/DAY, WEEK 7 TO 8): 325. C/ANIMAL/DAY | weekly food consumption, MEAN (female dogs, 20 MG/KG/DAY, WEEK 8 TO 9): 375. C/ANIMAL/DAY | weekly food consumption, MEAN (female dogs, 20 MG/KG/DAY, WEEK 9 TO 10): 322. C/ANIMAL/DAY | weekly food consumption, MEAN (female dogs, 20 MG/KG/DAY, WEEK 10 TO 11): 350. C/ANIMAL/DAY | weekly food consumption, MEAN (female dogs, 20 MG/KG/DAY, WEEK 11 TO 12): 305. C/ANIMAL/DAY | weekly food consumption, MEAN (female dogs, 20 MG/KG/DAY, WEEK 12 TO 13): 249. C/ANIMAL/DAY | mean total cumulative body weight change, lower than control (male dogs, 20 mg/kg/day, end of 13-week study (body weight loss)): 120% | mean food consumption, lower than control (male dogs, 20 mg/kg/day, first week of dose administration): 33% | food consumption, less than control values (male dogs, 20 mg/kg/day, generally, throughout the study): at least 10% | mean body weight, lower than control (male dogs, 20 mg/kg/day, study week 13): 13% | mean food consumption, lower than control (male dogs, 20 mg/kg/day, study weeks 6 to 13 except week 8 to 9, not statistically significant): at least 10% | weekly food consumption, MEAN (male dogs, 2.0 MG/KG/DAY group, WEEK −1 TO 0 (before dosing)): 339. C/ANIMAL/DAY | weekly food consumption, MEAN (male dogs, 2.0 MG/KG/DAY, WEEK 0 TO 1): 320. C/ANIMAL/DAY | weekly food consumption, MEAN (male dogs, 2.0 MG/KG/DAY, WEEK 1 TO 2): 354. C/ANIMAL/DAY | weekly food consumption, MEAN (male dogs, 2.0 MG/KG/DAY, WEEK 2 TO 3): 373. C/ANIMAL/DAY | weekly food consumption, MEAN (male dogs, 2.0 MG/KG/DAY, WEEK 3 TO 4): 366. C/ANIMAL/DAY | weekly food consumption, MEAN (male dogs, 2.0 MG/KG/DAY, WEEK 4 TO 5): 369. C/ANIMAL/DAY | weekly food consumption, MEAN (male dogs, 2.0 MG/KG/DAY, WEEK 5 TO 6): 360. C/ANIMAL/DAY | weekly food consumption, MEAN (male dogs, 2.0 MG/KG/DAY, WEEK 6 TO 7): 393. C/ANIMAL/DAY | weekly food consumption, MEAN (male dogs, 2.0 MG/KG/DAY, WEEK 7 TO 8): 360. C/ANIMAL/DAY | weekly food consumption, MEAN (male dogs, 2.0 MG/KG/DAY, WEEK 8 TO 9): 388. C/ANIMAL/DAY | weekly food consumption, MEAN (male dogs, 2.0 MG/KG/DAY, WEEK 9 TO 10): 375. C/ANIMAL/DAY | weekly food consumption, MEAN (male dogs, 2.0 MG/KG/DAY, WEEK 10 TO 11): 389. C/ANIMAL/DAY | weekly food consumption, MEAN (male dogs, 2.0 MG/KG/DAY, WEEK 12 TO 13): 355. C/ANIMAL/DAY | weekly food consumption, MEAN (male dogs, 6.0 MG/KG/DAY group, WEEK −1 TO 0 (before dosing)): 331. C/ANIMAL/DAY | weekly food consumption, MEAN (male dogs, 6.0 MG/KG/DAY, WEEK 0 TO 1): 351. C/ANIMAL/DAY | weekly food consumption, MEAN (male dogs, 6.0 MG/KG/DAY, WEEK 1 TO 2): 370. C/ANIMAL/DAY | weekly food consumption, MEAN (male dogs, 6.0 MG/KG/DAY, WEEK 3 TO 4): 380. C/ANIMAL/DAY | weekly food consumption, MEAN (male dogs, 6.0 MG/KG/DAY, WEEK 4 TO 5): 350. C/ANIMAL/DAY | weekly food consumption, MEAN (male dogs, 6.0 MG/KG/DAY, WEEK 5 TO 6): 374. C/ANIMAL/DAY | weekly food consumption, MEAN (male dogs, 6.0 MG/KG/DAY, WEEK 6 TO 7): 381. C/ANIMAL/DAY | weekly food consumption, MEAN (male dogs, 6.0 MG/KG/DAY, WEEK 7 TO 8): 356. C/ANIMAL/DAY | weekly food consumption, MEAN (male dogs, 6.0 MG/KG/DAY, WEEK 8 TO 9): 368. C/ANIMAL/DAY | weekly food consumption, MEAN (male dogs, 6.0 MG/KG/DAY, WEEK 9 TO 10): 360. C/ANIMAL/DAY | weekly food consumption, MEAN (male dogs, 6.0 MG/KG/DAY, WEEK 10 TO 11): 367. C/ANIMAL/DAY | weekly food consumption, MEAN (male dogs, 6.0 MG/KG/DAY, WEEK 11 TO 12): 357. C/ANIMAL/DAY | weekly food consumption, MEAN (male dogs, 6.0 MG/KG/DAY, WEEK 12 TO 13): 331. C/ANIMAL/DAY | weekly food consumption, MEAN (male dogs, 20 MG/KG/DAY group, WEEK −1 TO 0 (before dosing)): 337. C/ANIMAL/DAY | weekly food consumption, MEAN (male dogs, 20 MG/KG/DAY, WEEK 0 TO 1): 228.* C/ANIMAL/DAY | weekly food consumption, MEAN (male dogs, 20 MG/KG/DAY, WEEK 1 TO 2): 319. C/ANIMAL/DAY | weekly food consumption, MEAN (male dogs, 20 MG/KG/DAY, WEEK 2 TO 3): 326. C/ANIMAL/DAY | weekly food consumption, MEAN (male dogs, 20 MG/KG/DAY, WEEK 3 TO 4): 357. C/ANIMAL/DAY | weekly food consumption, MEAN (male dogs, 20 MG/KG/DAY, WEEK 4 TO 5): 356. C/ANIMAL/DAY | weekly food consumption, MEAN (male dogs, 20 MG/KG/DAY, WEEK 5 TO 6): 331. C/ANIMAL/DAY | weekly food consumption, MEAN (male dogs, 20 MG/KG/DAY, WEEK 6 TO 7): 328. C/ANIMAL/DAY | weekly food consumption, MEAN (male dogs, 20 MG/KG/DAY, WEEK 7 TO 8): 325. C/ANIMAL/DAY | weekly food consumption, MEAN (male dogs, 20 MG/KG/DAY, WEEK 8 TO 9): 375. C/ANIMAL/DAY | weekly food consumption, MEAN (male dogs, 20 MG/KG/DAY, WEEK 9 TO 10): 322. C/ANIMAL/DAY | weekly food consumption, MEAN (male dogs, 20 MG/KG/DAY, WEEK 10 TO 11): 350. C/ANIMAL/DAY | weekly food consumption, MEAN (male dogs, 20 MG/KG/DAY, WEEK 11 TO 12): 305. C/ANIMAL/DAY | weekly food consumption, MEAN (male dogs, 20 MG/KG/DAY, WEEK 12 TO 13): 249. C/ANIMAL/DAY

— patent publication US20070225351A1, “Methods and compositions for controlling body weight and appetite” (priority 2002, published 2007)
